Where a name gives a salt, the structure may show the parent alone.

Assay [1] concerns cultured human mast cells (CHMC). Description: CHMC low cell density IgE activation: tryptase assay. The format is cell-based. The note with it: anti-IgE. In short, it runs like this: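 Cultured human mast cells (1000-1500 cells/well, donor-dependent) equilibrated 1 hr at 37° C, then stimulated with anti-IgE for 30 min at 37° C. Tryptase released into the supernatant is measured with a fluorogenic tryptase substrate after 30 min at room temperature.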

The test system is the same in assay [2]. Description: CHMC low cell density ionomycin activation: tryptase assay. It is filed as cell-based.

By IC50 is commonly meant the concentration at which inhibition is half-maximal. For `Oc1cccc(Nc2nc(Nc3ccc4oc(CN5CCNCC5)cc4c3)ncc2F)c1` [R926769, 5-Fluoro-N4-(3-hydroxyphenyl)-N2-[2-(N-piperazinomethylene)benzofuran-5-yl]-2,4-pyrimidinediamine Dihydrochloride Salt], the half-maximal inhibitory concentration (IC50) in assay [1] (Dihydrochloride Salt) is 1070 nM; in assay [2] it was greater than 10000 nM.
Turning to `CC(C)c1cccc(Nc2nc(Nc3ccc4oc(CO)cc4c3)ncc2F)c1` [R940286, 5-Fluoro-N4-(3-isopropylphenyl)-N2-[(2-hydroxymethylene]benzofur-5-yl]-2,4-pyrimidinediamine], the figures for the IC50 in assay [1] and in assay [2] were 337 nM and 7080 nM, respectively.
Regarding `CNC(=O)COc1cccc(Nc2ncc(F)c(Nc3cccc(N(C)C)c3)n2)c1` [R950264, N4-(3-Bis-N-methylaminophenyl)-5-fluoro-N2-[3-(N-methylamino)carbonylmethyleneoxyphenyl]-2,4-pyrimidinediamine], the IC50 in assay [1] is 198 nM; in assay [2] it was greater than 10000 nM.
The like results for `CNC(=O)COc1ccc(Nc2ncc(F)c(Nc3ccc4c(c3)OCCCO4)n2)cc1` [R935184, 5-Fluoro-N2-[4-(N-methylamino)carbonylmethyleneoxyphenyl]-N4-(3,4-propylenedioxyphenyl)-2,4-pyrimidinediamine] were, in that order, 605 nM and greater than 10000 nM.
The like results for `O=C(CNc1cccc(Nc2ncc(F)c(Nc3ccc4c(c3)OCCO4)n2)c1)NCCNCc1ccccc1` [R950198, N2-[3-(N-Benzylamino)ethyleneaminocarbonylmethyleneaminophenyl]-N4-(3,4-ethylenedioxyphenyl)-5-fluoro-2,4-pyrimidinediamine] were, in that order, 406 nM and greater than 10000 nM.
The like results for `CC(C)(C)OC(=O)N1CCc2ccc(Nc3nc(Cl)ncc3F)cc2C1` [Compound R926911] were, in that order, greater than 10000 nM and greater than 10000 nM.
Turning to `CCOC(=O)C(C)(C)c1ccc(Nc2nc(Nc3ccc(OCC(=O)OC)cc3)ncc2F)cc1` [R935157, N4-[4-[(1-Ethoxycarbonyl-1-methyl)ethyl]phenyl]-5-fluoro-N2-(4-methoxycarbonylmethyleneoxyphenyl)-2,4-pyrimidinediamine], the figures for the IC50 in assay [1] and in assay [2] were 256 nM and 4660 nM, respectively.
On the same counts, the results for `CCOC(=O)C(C)(Oc1cccc(Nc2nc(Nc3ccc(OC(C)C)cc3)ncc2F)c1)C(=O)OCC` [R935187, N4-[3-(1-Bis(ethoxycarbonyl)ethoxy)phenyl]-5-fluoro-N2-[4-isopropoxyphenyl)-2,4-pyrimidinediamine] are 9060 nM and greater than 10000 nM.
Take `CNC(=O)CCn1ncc2ccc(Nc3ncc(F)c(Nc4ccc5oc(C(=O)NC)cc5c4)n3)cc21` [R935297, 5-Fluoro-N4-[2-(N-methylaminocarbonyl)benzofuran-5-yl]-N2-[1-[2(N-methylaminocarbonyl)ethyl]-indazoline-6-yl]-2,4-pyrimidinediamine]: the IC50 is 7330 nM in assay [1] and greater than 10000 nM in assay [2].
As for `CNC(=O)C1Cc2cc(Nc3ncc(F)c(Nc4ccc(OCCO)nc4)n3)ccc2O1` (racemic) [R927039, (±)-N2-[2,3-Dihydro-(N-methylamino)carbonylbenzofuran-5-yl]-5-fluoro-N4-[2-(2-hydroxyethyleneoxy)pyridin-5-yl]-2,4-pyrimidinediamine], the IC50 in assay [1] is 1230 nM; in assay [2], greater than 10000 nM.
On the same counts, the results for `Cc1nc(COc2cccc(Nc3ncc(F)c(Nc4cccc(O)c4)n3)c2)no1` [R945127, 5-Fluoro-N4-(3-hydroxyphenyl)-N2-[3-(5-methyl-1,2,4-oxadiazol-3-yl)methyleneoxyphenyl]-2,4-pyrimidinediamine] are 704 nM and 8960 nM.
Consider `O=C1COc2ccc(Nc3ncc(F)c(Nc4cccc(O)c4)n3)cc2N1` [R909268, N2-(1,4-Benzoxazin-3-on-6-yl)-5-fluoro-N4-(3-hydroxyphenyl)-2,4-pyrimidinediamine], for which the IC50 in assay [1] was 71 nM; in assay [2], greater than 10000 nM.
The like results for `Cn1ncc2cc(Nc3ncc(F)c(Nc4ccc(F)c(F)c4)n3)ccc21` [R935358, N4-(3,4-Difluorophenyl)-5-fluoro-N2-(1-methylindazoline-5-yl)-2,4-pyrimidinediamine] were, in that order, greater than 10000 nM and greater than 10000 nM.
The like results for `CNC(=O)c1cc(COc2cccc(Nc3ncc(F)c(Nc4ccc5c(c4)OCCO5)n3)c2)co1` [R935213, N4-(3,4-ethylenedioxyphenyl)-5-fluoro-N2-[3-(2-(N-methylamino)carbonyl-fur-4-yl)methyleneoxyphenyl]-2,4-pyrimidinediamine] were, in that order, 619 nM and 10000 nM.
On the same counts, the results for `Fc1cnc(Nc2cccc(C(F)(F)F)c2)nc1Nc1ccc2c(c1)OCCO2` [R926805] are 764 nM and greater than 10000 nM.
On to `CCOC1CCOc2ccc(Nc3nc(Nc4cccc(OCC(=O)NC)c4)ncc3F)cc21` (stereo not shown) [R950296, N4-(4-Ethoxy-3,4-dihydro-2H-1-benzopyran-6-yl)-5-fluoro-N2-[3-(N-methylamino)carbonylmethyleneoxyphenyl]-2,4-pyrimidinediamine], for which the IC50 in assay [1] is 495 nM; in assay [2], greater than 10000 nM.
On the same counts, the results for `COC(=O)c1cc2cc(Nc3ncc(F)c(Nc4ccc5c(c4)NC(=O)C(F)(F)O5)n3)ccc2o1` [R940353, N4-[(2,2-Difluoro-4H-benzo[1,4]oxazin-3-one)-6-yl]-5-fluoro-N2-(2-methoxycarbonylbenzofur-5-yl)-2,4-pyrimidinediamine] are 91 nM and greater than 10000 nM.
Take `COc1ccc(Nc2ncc([N+](=O)[O-])c(Nc3ccc(OC)c(OC)c3)n2)cc1OC` [R940089, N2,N4-Bis-(3,4-dimethoxyphenyl)-5-nitro-2,4-pyrimidinediamine]: the half-maximal inhibitory concentration (IC50) is greater than 10000 nM in assay [1] (Homo sapiens, Mast cell) and greater than 10000 nM in assay [2] (Homo sapiens, Mast cell).
For `CCOC(=O)COc1cccc(Nc2nc(Nc3cc(OC)cc(OC)c3)ncc2F)c1` [R926804, N2-(3,5-Dimethoxyphenyl)-N4-(3-ethoxycarbonylmethyleneoxyphenyl)-5-fluoro-2,4-pyrimidinediamine], the IC50 was determined as 1580 nM in assay [1] and 7110 nM in assay [2].
The like results for `CNC(=O)COc1cccc(Nc2ncc(F)c(Nc3cccc(C(=O)c4ccccc4)c3)n2)c1` [R950372, N4-(3-Phenylcarbonylphenyl)-5-fluoro-N2-[3-(N-methylamino)carbonylmethyleneoxyphenyl]-2,4-pyrimidinediamine] were, in that order, 1350 nM and greater than 10000 nM.
On the same counts, the results for `O=C(COc1cccc(Nc2ncc(F)c(Nc3cccc(O)c3)n2)c1)NCCO` [R926506, 5-Fluoro-N4-(3-hydroxyphenyl)-N2-[3-(N-2-hydroxyethylamino)carbonylmethyleneoxyphenyl]-2,4-pyrimidinediamine] are 343 nM and greater than 10000 nM.
The like results for `CON=C(N)COc1ccc(Nc2ncc(F)c(Nc3ccc(OCC(N)=NOC)cc3)n2)cc1` [R945096, N2,N4-Bis[4-[2-methoxyimino(amino)ethyleneoxy]phenyl]-5-fluoro-2,4-pyrimidinediamine] were, in that order, 1750 nM and greater than 10000 nM.
`CCOC(=O)COc1cccc(Nc2nc(Nc3cccc(C(C)(C)C)c3)ncc2F)c1` [R940266, N2-(3-tert-Butylphenyl)-N4-(3-ethoxycarbonylmethyleneoxyphenyl)-5-fluoro-4-pyrimidinediamine]: the half-inhibitory concentration (IC50) in assay [1] and in assay [2] was greater than 10000 nM throughout.
For the molecule `CN1CCN(C(=O)CNc2cccc(Nc3ncc(F)c(Nc4cccc(O)c4)n3)c2)CC1` [R950223, 5-Fluoro-N4-(3-hydroxyphenyl)-N2-[3-[N—(N-methyl)piperazino]carbonylmethyleneaminophenyl]-2,4-pyrimidinediamine], the IC50 is 763 nM in assay [1] and greater than 10000 nM in assay [2].
On the same counts, the results for `CC(C)(CO)c1ccc(Nc2ncc(F)c(Nc3ccc4oc(CO)cc4c3)n2)cc1` [R935177, 5-Fluoro-N2-[4-(2-hydroxy-1,1,dimethylethyl)phenyl]-N4-(2-hydroxymethylbenzofur-5-yl)-2,4-pyrimidinediamine] are 889 nM and greater than 10000 nM.
On to `CNC(=O)COc1cccc(Nc2ncc(F)c(Nc3cc(C(=O)OC)cc(C(F)(F)F)c3)n2)c1` [R926862, 5-Fluoro-N2-[3-(N-methylamino)carbonylmethyleneoxyphenyl]-N4-(3-methoxycarbonyl-5-trifluoromethylphenyl)-2,4-pyrimidinediamine], for which the IC50 in assay [1] is 774 nM; in assay [2], greater than 10000 nM.
On the same counts, the results for `O=C1COc2cc(Nc3nc(Nc4cccc(O)c4)ncc3F)ccc2N1` [R908698] are 1670 nM and greater than 10000 nM.
As to `CNC(=O)COc1cccc(Nc2nc(Nc3ccc4c(c3)OCCO4)ncc2F)c1` [R926776, N2-(3,4-Ethylenedioxyphenyl)-5-fluoro-N4-[3-(N-methylamino)carbonylmethyeleneoxyphenyl]-2,4-pyrimidinediamine], the results for the IC50 in assay [1] and in assay [2] were 810 nM and greater than 10000 nM, respectively.
The like results for `CN(C)C(=O)COc1cccc(Nc2ncc(F)c(Nc3ccc4c(c3)OCCO4)n2)c1` [R925755, N4-(3,4-Ethylenedioxyphenyl)-N2-[3-(N,N-dimethylamino)carbonylmethyleneoxyphenyl]-5-fluoro-2,4-pyrimidinediamine] were, in that order, 898 nM and greater than 10000 nM.
For the molecule `Cn1ncc2cc(Nc3ncc(F)c(Nc4ccc5c(cnn5C)c4)n3)ccc21` [R935192, N2,N4-Bis(1-methyl-indazolin-5-yl)-5-fluoro-2,4-pyrimidinediamine], the IC50 was 337 nM in assay [1] and greater than 10000 nM in assay [2].
On the same counts, the results for `O=C(COc1ccc(Nc2nc(Nc3cccc(O)c3)ncc2Br)cc1)NCC1CC1` [R925842] are 7300 nM and greater than 10000 nM.
The like results for `O=C(CNc1cccc(Nc2ncc(F)c(Nc3cccc(O)c3)n2)c1)N1CCNCC1` [R950222, 5-Fluoro-N4-(3-hydroxyphenyl)-N2-[3-(N-piperazino)carbonylmethyleneaminophenyl]-2,4-pyrimidinediamine] were, in that order, 865 nM and greater than 10000 nM.

The values above are taken from patent US9499493B2, “2,4-pyrimidinediamine compounds and their uses” (Rigel Pharmaceuticals, Inc., priority 2002, dated 2016).
